According to ChEMBL document CHEMBL4665836, “Overcoming β-Lactam resistance in Pseudomonas aeruginosa using non-canonical tobramycin-based antibiotic adjuvants” (2020):

Assays:
Assay type in all cases: functional
Pseudomonas aeruginosa [1] = test: Potentiation of aztreonam-induced antibacterial activity against carbapenem-resistant Pseudomonas aeruginosa 86052 clinical isolate assessed as fold reduction in aztreonam MIC at 8 uM
Pseudomonas aeruginosa [2] = test: Potentiation of ceftazidime-induced antibacterial activity against carbapenem-resistant Pseudomonas aeruginosa 86052 clinical isolate assessed as fold reduction in ceftazidime MIC at 8 uM
Pseudomonas aeruginosa [3] = test: Potentiation of ceftazidime-induced antibacterial activity against carbapenem-resistant Pseudomonas aeruginosa 107092 clinical isolate assessed as fold reduction in ceftazidime MIC at 8 uM
Pseudomonas aeruginosa [4] = test: Potentiation of aztreonam-induced antibacterial activity against carbapenem-resistant Pseudomonas aeruginosa 108590 clinical isolate assessed as fold reduction in aztreonam MIC at 8 uM
Pseudomonas aeruginosa [5] = test: Potentiation of aztreonam-induced antibacterial activity against carbapenem-resistant Pseudomonas aeruginosa 88949 clinical isolate assessed as fold reduction in aztreonam MIC at 8 uM
Pseudomonas aeruginosa [6] = test: Potentiation of aztreonam-induced antibacterial activity against carbapenem-resistant Pseudomonas aeruginosa 107092 clinical isolate assessed as fold reduction in aztreonam MIC at 8 uM
Pseudomonas aeruginosa [7] = test: Potentiation of ceftazidime-induced antibacterial activity against carbapenem-resistant Pseudomonas aeruginosa 108590 clinical isolate assessed as fold reduction in ceftazidime MIC at 8 uM
Pseudomonas aeruginosa [8] = test: Potentiation of aztreonam-induced antibacterial activity against carbapenem-resistant Pseudomonas aeruginosa 109084 clinical isolate assessed as fold reduction in aztreonam MIC at 8 uM
Pseudomonas aeruginosa [9] = test: Potentiation of ceftazidime-induced antibacterial activity against carbapenem-resistant Pseudomonas aeruginosa 109084 clinical isolate assessed as fold reduction in ceftazidime MIC at 8 uM
Pseudomonas aeruginosa [10] = test: Potentiation of ceftazidime-induced antibacterial activity against carbapenem-resistant Pseudomonas aeruginosa 88949 clinical isolate assessed as fold reduction in ceftazidime MIC at 8 uM
Pseudomonas aeruginosa [11] = test: Antibacterial activity against Pseudomonas aeruginosa PAO750 harboring mexAB-oprM/mexCD-oprJ/mexEF-oprN/mexJK/mexXY/opmH efflux deficient mutant
Pseudomonas aeruginosa [12] = test: Antibacterial activity against Pseudomonas aeruginosa PAO200 harboring mexAB-oprM efflux deficient mutant
Pseudomonas aeruginosa [13] = test: Potentiation of imipenem-induced antibacterial activity against carbapenem-resistant Pseudomonas aeruginosa 109084 clinical isolate assessed as fold reduction in imipenem MIC at 8 uM
Pseudomonas aeruginosa [14] = test: Potentiation of imipenem-induced antibacterial activity against carbapenem-resistant Pseudomonas aeruginosa 108590 clinical isolate assessed as fold reduction in imipenem MIC at 8 uM
Pseudomonas aeruginosa [15] = test: Potentiation of imipenem-induced antibacterial activity against carbapenem-resistant Pseudomonas aeruginosa 107092 clinical isolate assessed as fold reduction in imipenem MIC at 8 uM
Pseudomonas aeruginosa [16] = test: Potentiation of imipenem-induced antibacterial activity against carbapenem-resistant Pseudomonas aeruginosa 86052 clinical isolate assessed as fold reduction in imipenem MIC at 8 uM
Pseudomonas aeruginosa [17] = test: Potentiation of imipenem-induced antibacterial activity against carbapenem-resistant Pseudomonas aeruginosa 88949 clinical isolate assessed as fold reduction in imipenem MIC at 8 uM
Pseudomonas aeruginosa [18] = test: Antibacterial activity against wild type Pseudomonas aeruginosa PAO1

NC(=O)[C@@H]1CC[C@@H]2CN1C(=O)N2OS(=O)(=O)O [AVIBACTAM]
2: fold change (FC) (Pseudomonas aeruginosa [1]) | fold change (FC) (Pseudomonas aeruginosa [2]) | fold change (FC) (Pseudomonas aeruginosa [3]) | fold change (FC) (Pseudomonas aeruginosa [4]) | fold change (FC) (Pseudomonas aeruginosa [5]) | fold change (FC) (Pseudomonas aeruginosa [6]) | fold change (FC) (Pseudomonas aeruginosa [7]) | fold change (FC) (Pseudomonas aeruginosa [8]) | fold change (FC) (Pseudomonas aeruginosa [9]) | fold change (FC) (Pseudomonas aeruginosa [10])

O=C(O)c1cn(C2CC2)c2cc(N3CCNCC3)c(F)cc2c1=O [CIPROFLOXACIN]
0.0156 µg/mL: MIC (Pseudomonas aeruginosa [12])
0.0078 µg/mL: MIC (Pseudomonas aeruginosa [11])

O.O=C(NC1CCNCC1)[C@@H]1CC[C@@H]2CN1C(=O)N2OS(=O)(=O)O [RELEBACTAM]
2: fold change (FC) (Pseudomonas aeruginosa [13]) | fold change (FC) (Pseudomonas aeruginosa [14]) | fold change (FC) (Pseudomonas aeruginosa [15]) | fold change (FC) (Pseudomonas aeruginosa [16]) | fold change (FC) (Pseudomonas aeruginosa [17])

NC[C@H]1O[C@H](O[C@H]2[C@H](O)[C@@H](O[C@H]3O[C@H](CO)[C@@H](O)[C@H](N)[C@H]3O)[C@H](N)C[C@@H]2N)[C@H](N)C[C@@H]1O [TOBRAMYCIN]
1 µg/mL: MIC (Pseudomonas aeruginosa [18]) | MIC (Pseudomonas aeruginosa [11]) | MIC (Pseudomonas aeruginosa [12])
